The subject of experiment [1] is platelets, leukocytes, and extracellular vesicles (EV). Briefly: High-resolution flow cytometry of pro-thrombotic proteins in roller pump ECMO circuit (Trial 1). It counts as cell-based, human. An excerpt:
(§1) Whole blood was collected from healthy adults under an U.S. Army Institute of Surgical Research approved standard operating procedure. A simulated neonatal roller pump with a KIDS D100 oxygenator circulated human whole blood at a low or nominal flow rate ([…] and 0.5 L/min) for six hours or until clot formation caused device failure. Samples were collected hourly from the ECMO model that received heparin alone or heparin plus roflumilast (a PDE4 inhibitor). Expression of pro-thrombotic proteins on leukocytes and extracellular vesicles (EV) were measured with high-resolution flow cytometry. Coagulation factor activity, platelet counts, time to thrombin generation, peak thrombin, and endogenous thrombin potential were quantified. Whole blood was collected from healthy adult humans into a blood transfer bag containing 0.5 U/mL of heparin with or without roflumilast at 0.01 microgram per mL, under an approved protocol by the U.S. Army Institute of Surgical Research. The blood was then circulated through a roller pump circuit for six hours or until clot formation occurred that prevented forward flow through the circuit. As a control, an aliquot of static blood was removed after priming the circuit and maintained in a similar test environment without circuitry. Samples were collected hourly from the roller pump circuit, which circulated blood treated with either heparin only or heparin plus roflumilast, at nominal flow rates (0.5 L/min). The expression of pro-thrombotic phospholipids and proteins on platelets, leukocytes, and extracellular vesicles (EV) was measured using high-resolution flow cytometry. Additionally, thromboelastography (TEG) and coagulation indices were used to assess coagulopathy, and a calibrated automated thrombogram was employed to measure differences in whole blood TEG between the roflumilast-treated and heparin-only samples.

Experiment [2] deals with human whole blood. Briefly: Clot formation (d-dimer) and plasminogen activating inhibitor in simulated Cardiohelp HTS in vitro ECMO system (Trial 2). The settings on record: after five hours of circulation, low flow rate (1 L/min); for clot formation as measured by d-dimer: heparin with or without roflumilast, p<0.04. The source says: (§2) Whole blood was collected from healthy adults under an US Army Institution of Surgeryal Review Board approved protocol. A simulated Cardiohelp HTS in vitro ECMO system with a double-lumen veno-venous catheter circulated human whole blood at a low flow rate (1 L/min) for six hours or until clot formation caused device failure. Samples were collected hourly from the ECMO model that received heparin alone or heparin plus roflumilast (a PDE4 inhibitor). Expression of pro-thrombotic proteins on leukocytes and extracellular vesicles (EV) were measured with high-resolution flow cytometry. Coagulation factor activity, platelet counts, time to thrombin generation, peak thrombin, and endogenous thrombin potential were quantified.

Experiment [3] has as its system neutrophils and monocytes. The note with it: Totani et al (J. Thromb Haemost. 2016); cited from earlier work.
The subject of experiment [4] is human whole blood. Kind of experiment: Circuit patency / clot formation in simulated neonatal roller pump ECMO circuit (Trial 1). The note with it: for circuits with sustained patency after six hours: heparin 0.5 U/mL with or without roflumilast, 3/4 vs 2/7 circuits. The source says:
(§3) Whole blood was collected from healthy adults under an U.S. Army Institute of Surgical Research approved standard operating procedure. A simulated neonatal roller pump with a KIDS D100 oxygenator circulated human whole blood at a low or nominal flow rate ([…] and 0.5 L/min) for six hours or until clot formation caused device failure. Samples were collected hourly from the ECMO model that received heparin alone or heparin plus roflumilast (a PDE4 inhibitor). Expression of pro-thrombotic proteins on leukocytes and extracellular vesicles (EV) were measured with high-resolution flow cytometry. Coagulation factor activity, platelet counts, time to thrombin generation, peak thrombin, and endogenous thrombin potential were quantified.
(§4) Whole blood was collected from healthy adult humans into a blood transfer bag containing 0.5 U/mL of heparin with or without roflumilast at 0.01 microgram per mL, under an approved protocol by the U.S. Army Institute of Surgical Research. The blood was then circulated through a roller pump circuit for six hours or until clot formation occurred that prevented forward flow through the circuit. As a control, an aliquot of static blood was removed after priming the circuit and maintained in a similar test environment without circuitry.
(§5) Samples were collected hourly from the roller pump circuit, which circulated blood treated with either heparin only or heparin plus roflumilast, at nominal flow rates (0.5 L/min). The expression of pro-thrombotic phospholipids and proteins on platelets, leukocytes, and extracellular vesicles (EV) was measured using high-resolution flow cytometry. Additionally, thromboelastography (TEG) and coagulation indices were used to assess coagulopathy, and a calibrated automated thrombogram was employed to measure differences in whole blood TEG between the roflumilast-treated and heparin-only samples.

The subject of experiment [5] is human whole blood. Kind of experiment: Thromboinflammation markers in simulated Cardiohelp HTS in vitro ECMO system (Trial 2). The class given is cell-based. The settings on record: roflumilast added to heparin vs heparin alone; preliminary results.
Description: as §2

For a further experiment, the system named is thrombin generation. Kind of experiment: Thrombin generation (calibrated automated thrombogram) in roller pump ECMO circuit (Trial 1). On the set-up: species or system human. The settings on record: for time to thrombin generation: at the 3-hour time point, p<0.04; for time to thrombin generation / peak thrombin generation: heparin with or without roflumilast; for peak thrombin generation: p<0.02.
Description: as §3, §4, §5

A further experiment has as its system monocyte. The settings on record: cell culture experiments; cited from earlier work.
The subject of another experiment is leukocytes. Briefly: Leukocyte activation measured by TNF-alpha in roller pump ECMO circuit (Trial 1). The note with it: nominal flow rate (0.5 L/min), six hours; heparin with Roflumilast. It counts as cell-based, human.
Description: as §1, with “circuitry.” for “circuitry. Samples were collected hourly from the roller pump circuit, which circulated blood treated with either heparin only or heparin plus roflumilast, at nominal flow rates (0.5 L/min). The expression of pro-thrombotic phospholipids and proteins on platelets, leukocytes, and extracellular vesicles (EV) was measured using high-resolution flow cytometry. Additionally, thromboelastography (TEG) and coagulation indices were used to assess coagulopathy, and a calibrated automated thrombogram was employed to measure differences in whole blood TEG between the roflumilast-treated and heparin-only samples.”

Setting [6] is: in vitro ECMO experiments with roflumilast.

For `O=C(Nc1c(Cl)cncc1Cl)c1ccc(OC(F)F)c(OCC2CC2)c1` [roflumilast], in experiment [1] (low flow (0.3 L/min) vs low flow with Roflumilast, p<0.05), the “Monocytes expression of tissue factor” value is listed as “increased more at low flow than circuits treated with”. Further, in experiment [1] (low flow (0.3 L/min) with Roflumilast vs nominal and low flow, over six hours, p<0.05), the P-selection expression result was “significantly inhibited”. The “extracellular leukocytes expressing tissue factor” value in experiment [1] (roller pump circuit, heparin plus roflumilast) is on record as “decreased”. Further, the “clot formation as measured by d-dimer” value with human whole blood [2] was 0.30 ± 0.06 µg/mL. Further, the “increase in plasminogen activating inhibitor levels, more than heparin alone” value in the experiment with human whole blood [2] (roflumilast added to heparin, p<0.03) is reported as 1.6 fold. Moreover, the “pro-thrombotic functions of neutrophils and monocytes” value in experiment [3] is “prevents”. The “circuits with sustained patency after six hours” value with human whole blood [4] is on record as 75%. The “clot formation (in vitro ECMO experiments, summary)” value with human whole blood [4] (setting [6]) was “decreased”. In the experiment with human whole blood [5], the “monocyte activation (thromboinflammation)” value is “less”, the “myeloperoxidase (thromboinflammation)” value is listed as “less” and the “p-selectin (thromboinflammation)” value was “less”. In the experiment on thrombin generation, the “time to thrombin generation” value was 13.9 min and the peak thrombin generation was 69 nm. For the same molecule, the “thrombin generation (in vitro ECMO experiments, summary)” value in the experiment with thrombin generation (setting [6]) is on record as “decreased”. The “Peak thrombin (comparison in words)” value with thrombin generation (nominal flow rate (0.5 L/min), six hours, heparin only vs leukodepleted or roflumilast and heparin, p<0.05) is reported as “increased significantly more in heparin only”. For the same molecule, the “lag time (thrombin generation)” value in the experiment with thrombin generation (over six hours of circulation, heparin vs heparin with Roflumilast) is reported as “decreased lag time over six hours of circulation less than roflumilast treated circuits”. Further, in the experiment on monocyte, the “monocyte activation of tissue factor” value is “decreases”. The “leukocyte activation as measured by TNF-alpha” value in the experiment with leukocytes is “inhibited leukocyte activation”.

Consider heparin, for which the “clot formation as measured by d-dimer” value with human whole blood [2] was 0.49 ± 0.08 µg/mL. For the same molecule, the “circuits with sustained patency after six hours” value with human whole blood [4] is given as 28%. Further, in the experiment on thrombin generation, the “time to thrombin generation” value came out at 6.8 min and the peak thrombin generation is on record as 207 nm.
